Experiments:
Format in all cases: in vivo
PR3 [1] = assay: Bone marrow PR3 activity after repeated dosing, C57BL/6 mice; conditions: for Reduction of PR3 activity vs vehicle / Change From Vehicle Control (%) PR3: 7 days
Description: (§1) Briefly, animals were weighed and randomized into different treatment groups. In total, three different dosing levels of brensocatib were tested in each species and strain; each QD dosing level was equivalent to 1.5-times the matching daily BID dose. For BID dosing, the second daily dose was administered 8-h post the morning dose. C57BL/6 mice were dosed either BID or QD for 7 consecutive days at 0/0, 0.5/0.75, 2/3, and 20/30 mg/kg/day (BID/QD). BALB/c mice were dosed for 7 consecutive days at 0/0, 0.2/0.3, 2/3, and 20/30 mg/kg/day (BID/QD). SD rats were dosed for 9 consecutive days at 0/0, 0.2/0.3, 2/3, and 20/30 mg/kg/day (BID/QD). Wistar rats were dosed for 7 consecutive days at 0/0, 0.2/0.3, 2/3, and 20/30 mg/kg/day (BID/QD).
(§2) At the completion of the study, animals were sacrificed 16–24 h post their final dose. The hind limb bones (femurs and tibias) were collected at necropsy for bone marrow analysis of NSP activities by kinetic enzymatic assays ([Basso et al., 2022]). See section Quantification of Bone Marrow NSP Activities for details.
(§3) For the mice, each animal had the femurs and tibias of both hind limbs harvested. For the rat, the femur and tibia from a single hind limb per animal was harvested. Bones were kept on wet ice until processing for bone marrow collection. In brief, bone cutters were used to cut the epiphysis (knobby ends) off the long bones to expose the bone marrow filled cavity. Each bone cavity was then flushed with 5 mL/bone (mouse) or 10 mL/bone (rat) of ice-cold RPMI media through a […] and collected in a 50-mL conical tube. Cells were spun down at 2,500 × g at 4°C for 5 min and the supernatant was aspirated. After which, bone marrow cells were lysed with 1X red blood cell (RBC) lysis buffer (Abcam, ab204733) to eliminate contaminating RBCs and washed with PBS to remove any residual RBC lysis buffer. The resulting white blood cells (WBC) were subsequently lysed with 1% (v/v) Triton X-100 in PBS. Lysates were added to 96-well plates and stored at −80°C until NSP analyses.
(§4) Bone marrow lysates prepared as described above were diluted and plated onto 96-well assay plates to quantify NSP activities as described previously ([Basso et al., 2022]). Briefly, peptide substrates for NE (N-Methoxysuccinyl-Ala-Ala-Pro-Val-7-amido-4-methylcoumarin; Sigma; St. Louis, MO; Excitation/Emission at 350/450 nm), PR3 ((7-Methoxycoumarin-4-yl)acetyl-lysyl-(picolinoyl)-Tyr-Asp-Ala-Lys-Gly-Asp-N-3-(2-4-dinitrophenyl)-2-3-diaminopropyonyl-NH2); GenScript; Piscataway, NJ; Excitation/Emission at 340/430 nm), and CatG (N-Succinyl-Ala-Ala-Pro-Phe p nitroanilide; Sigma; Absorbance at 405 nm) were added at a final assay concentration of 100 μM, 40 μM, and 200 μM, respectively, and either fluorescence or absorbance was quantified using a Synergy microplate reader (BioTek; Winooski, VT). The specific NSP activity in each sample was calculated as the total activity minus the activity in the presence of a specific NSP inhibitor (if used), including elastase inhibitor (Abcam) for NE, sivelestat (Abcam) for PR3, and cathepsin G inhibitor I (Cayman Chemical; Ann Arbor, MI) for CatG. NSP concentrations were interpolated based on their activities relative to the standard curves created using active human NE protein (Sigma), active human PR3 protein (Sigma), and active human CatG protein (Sigma), respectively. Due to unavailability of commercial mouse and/or rat NE, PR3, and CatG proteins, the corresponding human proteins were used instead since their catalytic ability is considered to be conserved across species. A portion of each cell lysate sample was retained for protein quantification using a Pierce™ BCA Protein Assay Kit (Thermo Fisher). The NSP activities were normalized for the cell lysate protein concentrations.
(§5) The Pierce™ BCA Protein Assay Kit was used to measure the total protein of the samples after lysis to allow for subsequent normalization. […]

NE = assay: Bone marrow NE activity after repeated dosing, Sprague Dawley rats; conditions: for Reduction of NE activity vs vehicle / Change From Vehicle Control (%) NE: 9 days
Description: as §1, §2, §3, §4, §5

CatG [2] = assay: PD recovery study, bone marrow CatG activity, C57BL/6 mice; conditions: for Percent change from vehicle CatG: bone marrow
Description: A PD recovery study was performed in female C57BL/6 mice dosed BID for 8 consecutive days. Mice were dosed by oral gavage either with vehicle (0 mg/kg) or 5 mg/kg brensocatib (BID; 10 mg/kg/day). After 8 consecutive days of dosing, the animals were maintained without further treatment until prescribed sacrifice (days: 1, 3, 6, 8, and 10 days post final dose). Plasma was collected from animals during the first 24 h of dosing at −0.5 (half-hour prior to dosing), 1, 8, 9, and 24 h post initial dose. Note that the 8- and 24-h plasma samples were prior to the afternoon dose and prior to the second day dose, respectively. Plasma was used for PK analysis via LC-MS/MS. On prescribed days, animals were sacrificed, and the hind limb bones (femurs and tibias) were collected at necropsy for bone marrow analysis of NSP activities by kinetic enzymatic assays.
as §3, §4
The Pierce™ BCA Protein Assay Kit was used to measure the total protein of the samples after lysis to allow for subsequent normalization. The manufacturer’s instructions for use were followed when performing this assay on a portion of the sample lysates which were diluted in PBS, the same diluent as used for preparation of the standard. Plates were read on the Biotek Synergy plate reader with Gen5 software.

CatG [3] = assay: Bone marrow CatG activity after repeated dosing, Sprague Dawley rats; conditions: for Reduction of CatG activity vs vehicle / Change From Vehicle Control (%) CatG: 9 days
Description: as §1, §2, §3, §4, §5

PR3 [4] = assay: Bone marrow PR3 activity after repeated dosing, BALB/c mice; conditions: for Reduction of PR3 activity vs vehicle / Change From Vehicle Control (%) PR3: 7 days
Description: as §1, §2, §3, §4, §5

[5] = BID highest dose (20 mg/kg/day)
[6] = highest dose level 20/30 (BID/QD) mg/kg/day
[7] = oral BID 2 mg/kg/day, 16 h post final dose
[8] = oral BID 20 mg/kg/day, 16 h post final dose
[9] = oral QD 3 mg/kg/day, 24 h post final dose
[10] = oral QD 30 mg/kg/day, 24 h post final dose
[11] = after 8 days of 5 mg/kg BID, curve fit with free min and max

Cn1c(=O)oc2ccc(-c3ccc(C[C@@H](C#N)NC(=O)[C@@H]4CNCCCO4)cc3)cc21 [brensocatib]
Reduction of PR3 activity vs vehicle (PR3 [1]; [5]): 80% | Reduction of PR3 activity vs vehicle (PR3 [1]; QD highest dose (30 mg/kg/day)): 65% | Combined BID and QD percent reduction, PR3 (PR3 [1]; [6]): 71% | Change From Vehicle Control (%) PR3 (PR3 [1]; oral BID 0.5 mg/kg/day, 16 h post final dose): 9% (p = 0.8059) | Change From Vehicle Control (%) PR3 (PR3 [1]; [7]): −44% (p = 0.0041) | Change From Vehicle Control (%) PR3 (PR3 [1]; [8]): −80% (p < 0.0001) | Change From Vehicle Control (%) PR3 (PR3 [1]; oral QD 0.75 mg/kg/day, 24 h post final dose): +2% (p = 0.9977) | Change From Vehicle Control (%) PR3 (PR3 [1]; [9]): −46% (p = 0.0008) | Change From Vehicle Control (%) PR3 (PR3 [1]; [10]): −65% (p < 0.0001) | Reduction of NE activity vs vehicle (NE; [5]): 38% | Reduction of NE activity vs vehicle (NE; QD highest dose (30 mg/kg/day)): 36% | Combined BID and QD percent reduction, NE (NE; [6]): 37% | Change From Vehicle Control (%) NE (NE; oral BID 0.2 mg/kg/day): +6% (p = 0.6846) | Change From Vehicle Control (%) NE (NE; oral BID 2 mg/kg/day): −18% (p = 0.0243) | Change From Vehicle Control (%) NE (NE; oral BID 20 mg/kg/day): −38% (p < 0.0001) | Change From Vehicle Control (%) NE (NE; oral QD 0.3 mg/kg/day): −2% (p = 0.9973) | Change From Vehicle Control (%) NE (NE; oral QD 3 mg/kg/day): −19% (p = 0.2196) | Change From Vehicle Control (%) NE (NE; oral QD 30 mg/kg/day): −36% (p = 0.0078) | Recovery: Time to reach 50% recovery, CatG (CatG [2]; [11]): 3.3 days | Recovery: Time to reach 90% recovery, CatG (CatG [2]; [11]): 5.2 days | Recovery: Time to reach 95% recovery, CatG (CatG [2]; [11]): 5.5 days | Recovery: Time to reach 100% recovery, CatG (CatG [2]; [11]): 5.8 days | Percent change from vehicle CatG (CatG [2]; 1 day recovery after 8 days of 5 mg/kg BID): −93% (p < 0.0001) | Percent change from vehicle CatG (CatG [2]; 3 days recovery after 8 days of 5 mg/kg BID): −60% (p < 0.0001) | Percent change from vehicle CatG (CatG [2]; 6 days recovery after 8 days of 5 mg/kg BID): −14% (p = 0.2431) | Percent change from vehicle CatG (CatG [2]; 8 days recovery after 8 days of 5 mg/kg BID): +26% (p = 0.0133) | Percent change from vehicle CatG (CatG [2]; 10 days recovery after 8 days of 5 mg/kg BID): +38% (p < 0.0001) | Reduction of CatG activity vs vehicle (CatG [3]; [5]): 37% | Reduction of CatG activity vs vehicle (CatG [3]; QD highest dose (30 mg/kg/day)): 43% | Combined BID and QD percent reduction, CatG (CatG [3]; [6]): 40% | Change From Vehicle Control (%) CatG (CatG [3]; oral BID 0.2 mg/kg/day): +4% (p = 0.9857) | Change From Vehicle Control (%) CatG (CatG [3]; oral BID 2 mg/kg/day): +2% (p = 0.9972) | Change From Vehicle Control (%) CatG (CatG [3]; oral BID 20 mg/kg/day): −37% (p = 0.0420) | Change From Vehicle Control (%) CatG (CatG [3]; oral QD 0.3 mg/kg/day): −9% (p = 0.9235) | Change From Vehicle Control (%) CatG (CatG [3]; oral QD 3 mg/kg/day): −13% (p = 0.8203) | Change From Vehicle Control (%) CatG (CatG [3]; oral QD 30 mg/kg/day): −43% (p = 0.0348) | Reduction of PR3 activity vs vehicle (PR3 [4]; [5]): 70% | Reduction of PR3 activity vs vehicle (PR3 [4]; QD highest dose (30 mg/kg/day)): 52% | Combined BID and QD percentage reduction, PR3 (PR3 [4]; [6]): 61% | Change From Vehicle Control (%) PR3 (PR3 [4]; oral BID 0.2 mg/kg/day, 16 h post final dose): +13% (p = 0.6435) | Change From Vehicle Control (%) PR3 (PR3 [4]; [7]): −26% (p = 0.1243) | Change From Vehicle Control (%) PR3 (PR3 [4]; [8]): −70% (p < 0.0001) | Change From Vehicle Control (%) PR3 (PR3 [4]; oral QD 0.3 mg/kg/day, 24 h post final dose): −7% (p = 0.9149) | Change From Vehicle Control (%) PR3 (PR3 [4]; [9]): −13% (p = 0.6769) | Change From Vehicle Control (%) PR3 (PR3 [4]; [10]): −52% (p = 0.0010)

Reference: article PMC10394516, “The pharmacokinetic profile of brensocatib and its effect on pharmacodynamic biomarkers including NE, PR3, and CatG in various rodent species” (Frontiers in Pharmacology, 2023)
